Measured values reported in article PMC7004565, “Nucleotide inhibition of the pancreatic ATP-sensitive K^+ channel explored with patch-clamp fluorometry” (eLife, 2020).
Several values for one entry are separate records, joined by “and”; a condition that tells them apart may be missing. Equal entries are not always repeated. Where two headings read alike, the source gives them in different places.

Columns and labels:
[1] = target: T1, Kir6.2*,C166S-GFP + SUR1 (Homo sapiens, UniProt Q14654, C166S); assay: Bayesian MWC-type model fits to combined patch-clamp fluorometry data; format: biochemical; set-up: ANAP labelling is specific and only full-length Kir6.2 is expressed at the cell membrane; expressed in transfected cells; host or cells: HEK-293T; details: for Kd: read-out: KA (intrinsic binding affinity to the closed state) (converted)
T1 sequence (Q14654 whole entry C166S): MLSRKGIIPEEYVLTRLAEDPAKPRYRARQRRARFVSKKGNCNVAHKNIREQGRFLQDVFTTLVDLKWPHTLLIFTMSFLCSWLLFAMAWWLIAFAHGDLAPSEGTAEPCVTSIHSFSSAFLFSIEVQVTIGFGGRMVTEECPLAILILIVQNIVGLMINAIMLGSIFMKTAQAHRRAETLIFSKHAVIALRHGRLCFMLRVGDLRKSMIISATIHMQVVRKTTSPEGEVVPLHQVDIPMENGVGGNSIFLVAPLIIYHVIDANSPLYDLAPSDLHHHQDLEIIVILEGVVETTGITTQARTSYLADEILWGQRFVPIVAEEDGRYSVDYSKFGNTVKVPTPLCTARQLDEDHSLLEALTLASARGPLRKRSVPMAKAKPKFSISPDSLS
T1 sequence (Q09428 whole entry partner): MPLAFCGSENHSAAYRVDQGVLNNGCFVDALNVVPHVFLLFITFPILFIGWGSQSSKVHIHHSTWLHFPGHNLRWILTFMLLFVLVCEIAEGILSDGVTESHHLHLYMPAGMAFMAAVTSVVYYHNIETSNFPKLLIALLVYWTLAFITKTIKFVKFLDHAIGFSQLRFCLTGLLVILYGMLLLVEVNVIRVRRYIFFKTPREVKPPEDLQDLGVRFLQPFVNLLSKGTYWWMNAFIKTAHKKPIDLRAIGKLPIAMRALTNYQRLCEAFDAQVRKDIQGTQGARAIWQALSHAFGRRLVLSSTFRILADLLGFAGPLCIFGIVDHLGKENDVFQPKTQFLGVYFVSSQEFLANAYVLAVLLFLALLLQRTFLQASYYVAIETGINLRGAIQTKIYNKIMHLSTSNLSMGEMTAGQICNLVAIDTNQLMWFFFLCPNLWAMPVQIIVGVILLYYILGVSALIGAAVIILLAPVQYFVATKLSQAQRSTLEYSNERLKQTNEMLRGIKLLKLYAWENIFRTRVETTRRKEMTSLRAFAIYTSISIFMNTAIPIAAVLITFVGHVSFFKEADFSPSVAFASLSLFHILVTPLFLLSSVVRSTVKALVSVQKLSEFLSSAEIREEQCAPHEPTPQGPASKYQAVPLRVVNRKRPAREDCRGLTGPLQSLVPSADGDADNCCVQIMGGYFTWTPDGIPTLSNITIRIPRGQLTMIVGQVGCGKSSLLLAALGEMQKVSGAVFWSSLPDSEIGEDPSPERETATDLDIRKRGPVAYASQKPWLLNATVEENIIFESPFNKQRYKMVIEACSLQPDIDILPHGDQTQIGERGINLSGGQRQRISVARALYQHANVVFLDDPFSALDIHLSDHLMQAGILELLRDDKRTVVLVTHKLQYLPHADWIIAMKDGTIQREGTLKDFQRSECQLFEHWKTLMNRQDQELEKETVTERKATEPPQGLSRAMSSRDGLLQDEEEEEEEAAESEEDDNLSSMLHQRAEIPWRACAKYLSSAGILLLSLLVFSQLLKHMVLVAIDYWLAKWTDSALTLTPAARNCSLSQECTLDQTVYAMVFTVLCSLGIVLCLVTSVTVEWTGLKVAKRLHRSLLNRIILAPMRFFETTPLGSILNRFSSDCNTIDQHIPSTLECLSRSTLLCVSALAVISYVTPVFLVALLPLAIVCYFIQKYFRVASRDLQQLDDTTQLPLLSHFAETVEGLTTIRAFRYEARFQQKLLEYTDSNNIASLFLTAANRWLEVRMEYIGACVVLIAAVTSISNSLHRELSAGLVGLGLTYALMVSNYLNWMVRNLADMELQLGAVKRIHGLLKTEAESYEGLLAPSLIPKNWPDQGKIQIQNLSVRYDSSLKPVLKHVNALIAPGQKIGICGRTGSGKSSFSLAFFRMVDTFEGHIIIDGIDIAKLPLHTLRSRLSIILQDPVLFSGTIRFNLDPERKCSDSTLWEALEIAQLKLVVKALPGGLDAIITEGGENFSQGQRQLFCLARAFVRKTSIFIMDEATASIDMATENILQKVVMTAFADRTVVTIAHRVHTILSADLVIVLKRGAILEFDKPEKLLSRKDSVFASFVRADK
Source text: Our simultaneous binding and current measurements were well fit with a Monod-Wyman-Changeux (MWC)-type model (Figure 2D,E; [Monod et al., 1965]) which has been previously proposed to explain KATP channel inhibition ([Enkvetchakul and Nichols, 2003]; [Craig et al., 2008]; [Vedovato et al., 2015]). In our MWC-type model, each ligand binding event ( KA ) is independent and each bound ligand favours the closed state by the same factor ( D ). Simultaneous measurement of binding (fluorescence) and gating (current) allowed us to obtain well constrained fits to our model. To obtain free parameter ( L , KA , D ) estimates and verify that each parameter was well and uniquely determined, we employed a Bayesian Markov chain Monte Carlo (MCMC) method previously employed by [Hines et al. (2014)]. Using this approach, we constructed posterior probability distributions for the free parameters of our MWC-type model (Figure 2F, Table 3). […] Our estimate of L was quite low and broadly distributed. We repeated our fits with L fixed to a value consistent with previous single channel measurements (0.8, Popen=0.45; [John et al., 1998]; [Enkvetchakul et al., 2000]; [Ribalet et al., 2006]). This had only a very small effect on our estimates of D and KA (Figure 2—figure supplement 1). The broad distribution of L in our fit may represent current rundown which occurs during our patch-clamp recordings and is expected to affect the open-closed equilibrium.
In addition to the full MWC-type model we considered alternate models (Figure 2—figure supplement 2). These included a model in which only the first binding event influences the open-closed equilibrium of the channel (single-binding model; Figure 2—figure supplement 2B, Table 3), and an MWC-style model with an additional parameter C to allow for direct negative cooperativity between binding sites (negative cooperativity model; Figure 2—figure supplement 2C, Table 3). The single-binding model yielded very similar parameter estimates to our full MWC-type model (Figure 2—figure supplement 2D, Table 3). This is a consequence of D being so low that even in the MWC-type model most channels are closed when only a single nucleotide is bound. The cooperative model improved our fits, but not enough to justify the inclusion of an additional free parameter (see Discussion).
The MWC-type models considered (Figure 2 and Figure 2—figure supplement 2) were formulated as follows:(3) F/Fmax=KA[TNPATP](1+KA[TNPATP])^3+LDKA[TNPATP](1+DKA[TNPATP])^3/(1+KA[TNPATP])^4+L(1+DKA[TNPATP])^4 (4) open channels/total channels=L(1+DKA[TNPATP])^4/(1+KA[TNPATP])^4+L(1+DKA[TNPATP])^4
The first was similar to the MWC-type model, except that the channels close after one molecule of TNP-ATP binding with subsequent binding events having no effect.(7) F/Fmax=LDKA[TNPATP](1+3KA[TNPATP]+3KA2[TNPATP]^2+KA3[TNPATP]^3)+KA[TNPATP](1+KA[TNPATP])^3/L(1+4DKA[TNPATP]+6DKA2[TNPATP]^2+4DKA3[TNPATP]^3+DKA4[TNPATP]^4)+(1+KA[TNPATP])^4 (8) I/Imax=L(1+4DKA[TNPATP]+6DKA2[TNPATP]^2+4DKA3[TNPATP]^3+DKA4[TNPATP]^4)/L(1+4DKA[TNPATP]+6DKA2[TNPATP]^2+4DKA3[TNPATP]^3+DKA4[TNPATP]^4)+(1+KA[TNPATP])^4⋅1+L/L
The second alternate model was the same as the full MWC model, but with an additional term C describing binding cooperativity between Kir6.2 subunits.(9) F/Fmax=LDKA[TNPATP](1+3CDKA[TNPATP]+3C^2D^2KA2[TNPATP]^2+C^3D^3KA3[TNPATP]^3)+KA[TNPATP](1+3CKA[TNPATP])+3C^2KA2[TNPATP]^2+C^3KA3[TNPATP]^3)/L(1+4DKA[TNPATP]+6CD^2KA2[TNPATP]^2+4C^2D^3KA3[TNPATP]^3+C^3D^4KA4[TNPATP]^4)+1+4KA[TNPATP]+6CKA2[TNPATP]^2+4C^2KA3[TNPATP]^3+C^3KA4[TNPATP]^4 (10) I/Imax=L(1+4DKA[TNPATP]+6CD^2KA2[TNPATP]^2+4C^2D^3KA3[TNPATP]^3+C^3D^4KA4[TNPATP]^4)/L(1+4DKA[TNPATP]+6CD^2KA2[TNPATP]^2+4C^2D^3KA3[TNPATP]^3+C^3D^4KA4[TNPATP]^4)+1+4KA[TNPATP]+6C^2KA2[TNPATP]^2+4C^2KA3[TNPATP]^3+C^3KA4[TNPATP]^4⋅1+L/L […]

[2] = target: Kir6.2-GFP + SUR1 (Homo sapiens, UniProt Q14654); assay: ANAP fluorescence quenching in excised patches (patch-clamp fluorometry); format: binding; set-up: full length, fully ANAP-labelled Kir6.2 protein was produced and successfully trafficked to the membrane in the presence of SUR1; expressed in transfected cells; host or cells: HEK-293T; details: excised patches (PCF), Hill fit
Sequence of Kir6.2-GFP + SUR1 (Q14654 whole entry): as the sequence (Q14654 whole entry C166S) above, with S166C counted along it
Sequence of Kir6.2-GFP + SUR1 (Q09428 whole entry partner): as the sequence (Q09428 whole entry partner) above
Method: Currents were measured as described above.
ANAP bleaching was corrected as for the unroofed binding experiments with Equation 1 (Figure 2—figure supplement 3A). Due to the lower signal-to-noise ratio for PCF compared to the unroofed membranes, we performed experiments from both high-to-low and low-to-high TNP-ATP concentrations to minimise artifacts from our bleaching corrections.

[3] = target: T1, Kir6.2*,C166S-GFP + SUR1; assay: Current inhibition in excised inside-out patches (patch-clamp fluorometry)
[4] = Full MWC model, median estimate
[5] = Single-site (single-binding) model

Structure (SMILES): Nc1ncnc2c1ncn2[C@@H]1O[C@H](COP(=O)(O)OP(=O)(O)OP(=O)(O)O)[C@H]2OC3(O[C@H]21)C([N+](=O)[O-])=CC(=[N+]([O-])[O-])C=C3[N+](=O)[O-] (stereo partly drawn) [TNP-ATP, trinitrophenyl-ATP]
- D (factor by which nucleotide binding favours channel closure) [1, 4]: 0.84
- L (unliganded open-closed equilibrium constant) [1, 4]: 0.29 log10
- Kd [1, 4]: 66.1 µM
- C (binding cooperativity between Kir6.2 subunits) ([1]; Negative cooperativity model): 0.52
- D (factor by which nucleotide binding favours channel closure) ([1]; Negative cooperativity model): 0.83
- L (unliganded open-closed equilibrium constant) ([1]; Negative cooperativity model): 0.32 log10
- Kd ([1]; Negative cooperativity model): 37.2 µM
- D (factor by which nucleotide binding favours channel closure) [1, 5]: 0.70
- L (unliganded open-closed equilibrium constant) [1, 5]: 0.09 log10
- Kd [1, 5]: 70.8 µM
- h (Hill coefficient) fluorescence quenching [2]: 0.87
- Emax ([2]; fraction): 100%
- EC50 ([2]; n = 9): 77.7 µM and 77.6 µM
- IC50 [3]: 776 µM
- h (Hill coefficient) current inhibition ([3]; excised inside-out patches, Mg2+-free, Hill fit): 1.35
